Key:
[1] = target: T1, OX1R (Homo sapiens, UniProt O43613); test: FLIPR intracellular calcium antagonism test, HEK293-OX1R cells; format: cell-based; conditions: Orexin A at EC70, read-out: hOXIR IC50
T1 construct: expressed in transfected cells
T1 sequence (O43613 1-425): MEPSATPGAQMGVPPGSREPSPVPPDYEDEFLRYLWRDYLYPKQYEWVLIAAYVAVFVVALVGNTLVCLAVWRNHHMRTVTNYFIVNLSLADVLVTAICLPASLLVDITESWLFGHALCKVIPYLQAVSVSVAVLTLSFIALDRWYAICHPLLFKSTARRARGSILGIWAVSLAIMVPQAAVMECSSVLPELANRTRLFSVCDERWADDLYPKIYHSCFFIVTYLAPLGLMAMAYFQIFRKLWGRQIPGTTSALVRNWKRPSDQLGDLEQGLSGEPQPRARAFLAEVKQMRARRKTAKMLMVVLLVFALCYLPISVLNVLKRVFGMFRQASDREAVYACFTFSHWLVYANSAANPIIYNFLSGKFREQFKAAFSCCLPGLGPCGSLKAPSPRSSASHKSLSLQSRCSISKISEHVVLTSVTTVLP
Description: (§1) The change of intracellular calcium signal was detected by FLIPR, and the antagonism of the compounds on OX1R and OX2R receptors was evaluated by using IC50 value of the compounds as an index.
(§2) • Cell lines: Transfected HEK293-OX1R and HEK293-OX2R stable cell lines • HEK293-OX1R cell culture medium (DMEM, Invitrogen #11960-044, 10% serum Gibco #10099141, L-Glutamine 1×, Gibco #25030, sodium pyruvate 1×, Gibco #11360, Geneticin 300 μg/mL, Gibco #10131) • HEK293-OX2R cell culture medium (DMEM, Invitrogen #11960-044, 10% serum Gibco #10099141, L-Glutamine 1×, Gibco #25030, sodium pyruvate 1×, Gibco #11360, Geneticin 300 μg/mL, Gibco #10131, Blasticin 2 μg/mL, Invitrogen #R21001)
(§3) Experimental Steps and Methods: • a) Cell seeding (HEK293-OX1R and HEK293-OX2R cells) • 1) preheating the culture medium, trypsin and DPBS under water bath at 37° C.; pipetting and removing the medium of cell culture and washing same with 10 mL of DPBS; • 2) adding the preheated trypsin to a culture flask, rotating the culture flask so that the trypsin evenly covered the culture flask, and putting the culture flask in a 37° C., 5% CO2 incubator for digestion for 1-2 min; • 3) suspending the cells with 10-15 mL of medium for each T150 and centrifuging at 800 rpm for 5 min; resuspending the cells with 10 mL of medium, pipetting 1 mL of the cell suspension and counting with Vi-cell; • 4) diluting OX1R cells with medium to 5×10^5 cells/mL, and diluting OX2R cells with medium to 4×10^5 cells/mL, and adding the diluted cells to 384 plate (Greiner.781946) with a multi-channel pipette (50 μL/well, 25000 cells/well for OX1R cells, 20000 cells/well for OX2R cells); placing the cell plate in a 37° C., 5% CO2 incubator overnight. • b) Compound loading: • 1) diluting the compound to 20 mM with DMSO, 3-fold dilution, 8 gradients, duplicate wells, and adding same to a compound plate with an Echo liquid handler; then adding 20 μL of buffer to maintain the final concentration of DMSO of 0.1%. • c) FLIPR experiment: • 1) washing off the cell culture medium in the 384 plate with a vacuum pump, adding […] Direct fluorescent dye, incubating in 37° C., 5% CO2 incubator for 1 h, and balancing at room temperature for another 10 min. • 2) EC50 test: manually diluting Orexin A on ice, 3-fold dilution, 8 gradients, duplicate wells; preparing a DMSO plate and keep the DMSO concentration to be 0.5%; putting the cell plate, OrexinA plate, and DMSO plate in FLIPR respectively, and reading the fluorescence value. • 3) calculating the EC70 value based on the EC50 value of Orexin A; preparing a 5×EC70 solution, adding same to 384 compound plate with a multi-channel pipette, and storing on ice; • 4) putting the compound plate, 5×EC70 plate, cell plate, and FLIPR tip in sequence in FLIPR, running the program, and reading the fluorescence value. • d) Data analyzing: using Prism5.0 to analyze the data, and calculating the IC50 value of the compound.

[2] = target: T2, OX2R (Homo sapiens, UniProt O43614); test: FLIPR intracellular calcium antagonism test, HEK293-OX2R cells; format: cell-based; conditions: Orexin A at EC70, read-out: hOX2R IC50
T2 construct: expressed in transfected cells
T2 sequence (O43614 1-444): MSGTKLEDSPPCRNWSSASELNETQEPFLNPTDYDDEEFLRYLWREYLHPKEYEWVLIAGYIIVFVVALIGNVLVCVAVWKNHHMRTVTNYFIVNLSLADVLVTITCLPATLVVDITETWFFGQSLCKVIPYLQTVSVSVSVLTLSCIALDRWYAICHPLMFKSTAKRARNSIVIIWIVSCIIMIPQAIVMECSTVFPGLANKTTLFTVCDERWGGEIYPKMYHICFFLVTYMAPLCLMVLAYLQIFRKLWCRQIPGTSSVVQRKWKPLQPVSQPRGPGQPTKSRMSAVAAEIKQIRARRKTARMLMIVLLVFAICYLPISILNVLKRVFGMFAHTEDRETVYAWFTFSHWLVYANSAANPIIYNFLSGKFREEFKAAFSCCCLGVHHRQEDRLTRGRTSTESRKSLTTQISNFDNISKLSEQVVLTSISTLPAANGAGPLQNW
Description: as §1, §2, §3

Compound `COc1ccc(-n2nccn2)c(C(=O)N2C(c3nc4ccc(OC)cc4[nH]3)CC3CC32)c1` (centres unmarked) [Compound 8] has an IC50 [1] of 1790 nM and an IC50 [2] of 42 nM.

— US12583841B2, “Tetrahydropyrrolocyclic compound and application thereof” (Breakthrough Pharmaceuticals Inc., priority 2021, dated 2026)
